Assay results taken from patent publication US11945807B2, “Splicing modulator antibody-drug conjugates and methods of use” (EISAI R&D MANAGEMENT CO., LTD., priority 2018, dated 2024).
Like-named read-outs stand apart in the source and are kept apart here.

Columns and labels:
Caco-2 cells = assay: Caco-2 permeability of ADC payload; type: in vitro ADME; details: unconjugated payload; apical to basolateral, 2 hours
Ad2.1 pre-mRNA = assay: In vitro splicing (IVS) RT-qPCR, HeLa nuclear extract, Ad2.1; type: biochemical
Experimental: (§1) To evaluate payload activity in a cell-free system, an in vitro splicing assay was performed. The payloads were incubated with nuclear extracts and pre-mRNA substrate minigenes.
(§2) HeLa nuclear extract preparation: HeLa S3 cell pellets were resuspended in hypotonic buffer (10 mM HEPES pH 7.9, 1.5 mM MgCl2, 10 mM KCl, 0.2 mM PMSF, 0.5 mM DTT) and the suspension was brought up to a total of 5 packed cell volume (PCV). After centrifugation, the supernatant was discarded, and the cells were brought up to 3 PCV with hypotonic buffer and incubated on ice for 10 min. Cells were lysed using a dounce homogenizer and then centrifuged. […]. The nuclei were gently mixed for 30 min before centrifuging. The supernatant (nuclear extract) was then dialyzed into storage buffer (20 mM HEPES pH 7.9, 100 mM KCl, 0.2 mM EDTA, 20% glycerol, 0.2 mM PMSF, 0.5 mM DTT). Protein concentration was determined using NanoDrop 8000 UV-Vis spectrophotometer (ThermoFisher Scientific).
IVS: All Ad2-derived sequences (Pellizzoni et al. (1998) Cell 95(5):615-24) were cloned into pcDNA3.1(+) vector (Promega) using 5′ EcoRI and 3′ Xbal restriction sites. The plasmids were linearized using Xbal and used as DNA templates in in vitro transcription reactions. The FtzΔi intron-less plasmid (Luo and Reed (1999) 96(26):14937-42) was linearized using EcoRI. All RNAs were in vitro transcribed and then purified using MEGAScript T7 (Invitrogen) and MegaClear (Invitrogen) kits, respectively. For splicing reactions using Ad2 variant pre-mRNAs, 1 μL reactions were prepared using 8 μg nuclear extracts prepared from HeLa S3, 2 ng pre-mRNA, 0.2 ng FTZΔi, and varying concentrations of compounds or DMSO. After a 15 min pre-incubation at 30° C., 1 μL splicing activation buffer (0.5 mM ATP, 20 mM creatine phosphate, 1.6 mM MgCl2) was added, and the reactions were incubated for 90 min at 30° C. The reactions were then quenched with 13 μL DMSO, and 25 nL was used for RT-qPCR. […]

Ad2.2 pre-mRNA = assay: In vitro splicing (IVS) RT-qPCR, HeLa nuclear extract, Ad2.2; type: biochemical
Experimental: as §1, §2
IVS: All Ad2-derived sequences (Pellizzoni et al. (1998) Cell 95(5):615-24) were cloned into pcDNA3.1(+) vector (Promega) using 5′ EcoRI and 3′ Xbal restriction sites. The plasmids were linearized using Xbal and used as DNA templates in in vitro transcription reactions. The FtzΔi intron-less plasmid (Luo and Reed (1999) 96(26):14937-42) was linearized using EcoRI. All RNAs were in vitro transcribed and then purified using MEGAScript T7 (Invitrogen) and MegaClear (Invitrogen) kits, respectively. For splicing reactions using Ad2 variant pre-mRNAs, 1 μL reactions were prepared using 8 μg nuclear extracts prepared from HeLa S3, 2 ng pre-mRNA, 0.2 ng FTZΔi, and varying concentrations of compounds or DMSO. After a 15 min pre-incubation at 30° C., 1 μL splicing activation buffer (0.5 mM ATP, 20 mM creatine phosphate, 1.6 mM MgCl2) was added, and the reactions were incubated for 90 min at 30° C. The reactions were then quenched with 13 μL DMSO, and 25 nL was used for RT-qPCR. RT-qPCR reactions were prepared using TaqMan RNA-to-CT 1-step kit (Life Technologies), RNA from splicing reactions, Ad2 (forward: […]; reverse: […]; probe: […]) and Ftz (forward: […]; reverse: […]; probe: […]) mRNA primer-probe sets. Prism 7 (Graphpad) was used for non-linear regression curve fitting of the formed spliced product and normalized to the control (DMSO) sample. […] In the presence of payload, a decrease in the amount of spliced product was observed.

[1] = Caco-2 permeability of ADC payload; type: in vitro ADME; details: human, corresponding free payload
NCIH1650.1 = assay: Payload cellular potency CTGlo-ATS 72 h, NCIH1650.1; type: cell-based; details: cell line #1, 72 h, corresponding free payload
NCIH1568.1 = assay: Payload cellular potency CTGlo-ATS 72 h, NCIH1568.1; type: cell-based; details: cell line #2, 72 h, corresponding free payload
THP1.1 = assay: Payload cell potency and lethality CTGlo 72 h, THP1.1; type: cell-based; details: cell line #3, 72 h, corresponding free payload
[2] = test system: FBXW5 (mature mRNA transcript); assay: In vivo PD RT-qPCR in NCI-N87 tumors, FBXW5; set-up: species or system CB17-SCID mice; details: single IV 10 mg/kg; N=4; FIG. 24
[3] = test system: TAOK1 (neojunction transcript); assay: In vivo PD RT-qPCR in NCI-N87 tumors, TAOK1; set-up: species or system CB17-SCID mice; details: single IV 10 mg/kg; N=4; FIG. 24

Q: With `COc1cc2cc(c1Cl)N(C)C(=O)C[C@H](OC(=O)[C@H](C)N(C)C(=O)CCS)[C@]1(C)O[C@H]1[C@H](C)[C@@H]1C[C@@](O)(NC(=O)O1)[C@H](OC)/C=C/C=C(\C)C2` [DM1, reference compound] as the molecule, how does the “Permeability Mean Caco-2 A-B Perm (10e−6 cm/s)” value (Caco-2 cells) read?
A: The value was 0.38 10e−6 cm/s.

Q: What about the IC50 (Ad2.1 pre-mRNA; unconjugated payload, HeLa nuclear extract, read-out: qPCR-IVS-AT S Gmean IC50 (nm) Ad2.1 HELA.2) of the same molecule?
A: Its IC50 is greater than 25000 nM.

Q: And the IC50 (Ad2.2 pre-mRNA; unconjugated payload, HeLa nuclear extract, read-out: qPCR-IVS-AT S GMean IC50 (nM) Ad2.2 HELA.2)?
A: The IC50 was less than 25000 nM.

Q: With `CC[C@H](O)[C@@H](C)[C@H]1O[C@@H]1C[C@@](C)(O)/C=C/C=C(\C)[C@H]1OC(=O)C[C@H](O)CC[C@@](C)(O)[C@@H](OC(=O)N2CCNCC2)/C=C/[C@@H]1C` [D12, (2S,3S,6S,7R,10R,E)-7,10-dihydroxy-2-((R,2E,4E)-6-hydroxy-7-((2R,3R)-3-((2R,3S)-3-hydroxypentan-2-yl)oxiran-2-yl)-6-methylhepta-2,4-dien-2-yl)-3,7-dimethyl-12-oxooxacyclododec-4-en-6-yl piperazine-1-carboxylate] as the molecule, how does the Papp A→B at 2 h, 10 NM ([1]; Caco-2, A-B, read-out: Perm. Mean Caco 2 A-B Perm (10e−6 cm/s)) read?
A: Its Papp A→B at 2 h, 10 NM is 0.17 ×10⁻⁶ cm/s.

Q: What about the Papp B→A at 2 h, 10 NM ([1]; Caco-2, B-A, read-out: Perm. Mean Caco 2 B-A Perm (10e−6 cm/s)) of the same molecule?
A: Its Papp B→A at 2 h, 10 NM is 0.23 ×10⁻⁶ cm/s.

Q: And the efflux ratio at 2 h, 10 NM ([1]; Caco-2 efflux ratio, read-out: ER)?
A: The efflux ratio at 2 h, 10 NM was 1.35.

Q: What about the “CTGlo-ATS GMean LD50 (nM) 72 h NCIH1650.1” value (NCIH1650.1) of the same molecule?
A: The value was greater than 10000.00 nM.

Q: And the GI50 (NCIH1650.1; read-out: CTGlo-ATS GMean GI50 (nM) 72 h NCIH1650.1)?
A: The GI50 was 258 nM.

Q: And the IC50 (Ad2.1 pre-mRNA; biochemical splicing assay, corresponding free payload, read-out: qPCR-IVS-ATS GMean IC50 (nM) Ad2.1 HELA.2)?
A: Its IC50 is 16.5 nM.

Q: And the “Ratio Ad2.1/2.2” value (Ad2.1 pre-mRNA; ratio of IVS IC50 Ad2.1/Ad2.2, corresponding free payload)?
A: The value was 0.659.

Q: What about the IC50 (Ad2.2 pre-mRNA; biochemical splicing assay, corresponding free payload, read-out: qPCR-IVS-ATS GMean IC50 (nM) Ad2.2 HELA.2) of the same molecule?
A: The IC50 was 25.1 nM.

Q: What about the “CTGlo-ATS GMean LD50 (nM) 72 h NCIH1568.1” value (NCIH1568.1) of the same molecule?
A: The value was 1193.037 nM.

Q: And the GI50 (NCIH1568.1; read-out: CTGlo-ATS GMean GI50 (nM) 72 h NCIH1568.1)?
A: Its GI50 is 164 nM.

Q: What about the “CTGlo-ATS GMean LD50 (nM) 72 h THP1.1” value (THP1.1) of the same molecule?
A: Its value is 900.227 nM.

Q: And the GI50 (THP1.1; read-out: CTGlo-ATS GMean GI50 (nM) 72 h THP1.1)?
A: The GI50 was 202 nM.

Q: Which “change of FBXW5 mature mRNA transcript in tumor” value [2] does the source give for `CC(=O)N1CCC(n2nnc3c(F)cc(/C=C(\C)[C@H]4OC(=O)C[C@H](O)CC[C@H](C)[C@@H](OC(=O)N5CC[N+](C)(Cc6ccc(NC(=O)[C@H](C)NC(=O)[C@@H](NC(=O)CCCCCN7C(=O)C=CC7=O)C(C)C)cc6)CC5)/C=C/[C@@H]4C)cc32)CC1` [ADL5-D15, 4-((((2S,3S,6R,7S,10R,E)-2-((E)-1-(1-(1-acetylpiperidin-4-yl)-4-fluoro-1H-benzo[d][1,2,3]triazol-6-yl)prop-1-en-2-yl)-10-hydroxy-3,7-dimethyl-12-oxooxacyclododec-4-en-6-yl)oxy)carbonyl)-1-(4-((S)-2-((S)-2-(6-(2,5-dioxo-2,5-dihydro-1H-pyrrol-1-yl)hexanamido)-3-methylbutanamido)propanamido)benzyl)-1-methylpiperazin-1-ium] here?
A: The value was “significant depletion”.

Q: And the “change of TAOK1 neojunction transcript in tumor” value [3]?
A: Its value is “an increase in TAOK1, but did not reach statistical significance”.

Q: Which “change of FBXW5 mature mRNA transcript in tumor” value [2] does the source give for `CC[C@H](O)[C@@H](C)C1OC1C[C@@](C)(O)/C=C/C=C(\C)[C@H]1OC(=O)C[C@H](O)CC[C@@](C)(OC)[C@@H](OC(=O)N2CCN(CCN3C(=O)C=CC3=O)CC2)/C=C/[C@@H]1C` (stereo in doubt) [ADL14-D1, (2S,3S,6S,7R,10R,E)-10-hydroxy-2-((R,2E,4E)-6-hydroxy-7-((2S,3S)-3-((2R,3S)-3-hydroxypentan-2-yl)oxiran-2-yl)-6-methylhepta-2,4-dien-2-yl)-7-methoxy-3,7-dimethyl-12-oxooxacyclododec-4-en-6-yl 4-(2-(2,5-dioxo-2,5-dihydro-1H-pyrrol-1-yl)ethyl)piperazine-1-carboxylate] here?
A: The value was “did not exhibit statistically significant changes”.

Q: And the “change of TAOK1 neojunction transcript in tumor” value [3]?
A: Its value is “did not exhibit statistically significant changes”.
